Among the data in a melting point compilation (Tetko et al.; mined from patent text by program, amines drawn as free bases though some values may be those of a salt) are melting point values, retold here.

What is called melting point is the temperature, or range, at which the solid turns liquid. In turn, `CCOC(=O)CNC(=O)CNCc1ccc(-c2cc3ncnc(Nc4ccc5[nH]ccc5c4)c3s2)cc1` returned a melting point of 98 to 115 °C. With `COc1cc2c(cc1Cl)CCN(C)C[C@H]2c1ccccc1` the figure was 91 to 92 °C; with `CCC(OC(=O)C1CC1)c1ccc(Cl)c2nc3n(c12)CCCN3c1ccc(Cl)cc1Cl` (stereo not given), 159 to 161 °C; with `N#CC1CN1C(=O)NC(=O)c1ccc2c(c1)CCCC2` (stereo not given), 166 to 168 °C. To `O=C(NCc1ccccn1)Nc1cc(N2CCCC2=O)ccn1` belongs 234 to 235 °C. With `Fc1cc(Br)c(OCc2ccccc2)c(Br)c1` the figure was 83 °C; with `CC(C)(C(=O)NCCC#N)c1ccc(C(=O)Nc2cn3cc(Cl)ccc3n2)cc1`, 208 to 209 °C.

The compound `COCC1CCCN1Cc1ccc2cc(NC(=O)c3ccc(-c4ccc(Cl)cc4)cc3)ccc2n1` (stereo not given) returned a melting point of 172 to 174 °C. As to `OC(Cn1cncn1)(c1ccccc1)c1ccccc1`, the melting point lay in the range of 128 to 129 °C. To `COc1cc(COc2ccc(S(=O)(=O)c3ccc(C)nc3Nc3c(C)cc(C)cc3C)cc2)cc(OC)c1` belongs 107 to 109 °C. In turn, `Cc1ccc(S(=O)(=O)OCC2CCCc3scnc32)cc1` (stereo not given) returned a melting point of 64 to 65 °C. The compound `COC(=O)c1cnc(Cl)c(C)n1` came in with a melting point of 49 to 50 °C.

In turn, `O=C1CCCN1C(=O)Oc1ccc([N+](=O)[O-])cc1` gave a melting point of 122 to 123 °C. Take `COCc1cn2c(C)c(C)nc2c(O)c1CCC(=O)c1ccccc1`: the melting point is 167 to 168 °C. Consider `Cc1c(F)c(F)c(C(=O)NC2CCCCC2C)c(F)c1F` (stereo not given), for which the melting point was 202 to 204 °C. To `Nc1cnccc1Oc1ccc2[nH]ccc2c1` belongs 155 to 157 °C; to `COc1ccc(Nc2nc3cccc(-c4ccc(CN5CCS(=O)(=O)CC5)cc4)n3n2)cc1`, 241 °C; to `CC1(C)c2cc(NS(C)(=O)=O)ccc2CC2C1CCCN2CC1CCCCC1` (stereo not given), 214 to 217 °C. In the case of `[N-]=[N+]=NS(=O)(=O)c1ccc(N2CC(CO)OC2=O)cc1` (stereo not given), the melting point lay within 108 to 110 °C. `O=C(CN1CCC(Cc2ccc(F)cc2)CC1)Nc1ccc2[nH]c(=S)[nH]c2c1` came in with a melting point of 266 to 268 °C.

Turning to `O=CNc1c2c(nc3ccccc13)CCc1cnn(-c3ccccc3)c1-2`, the melting point is > 250 °C. For `CN1C(=O)CC(=O)N(c2ccccc2)c2ccccc21`, the melting point fell in the range of 144 to 146 °C. Turning to `Cc1oc2c(C)c(C)c(NC(=O)CC(C)(C)C)c(C)c2c1-c1ccc(C(C)C)cc1`, the melting point lay within 253 to 254 °C.

Take `CCOC(=O)C1=C(C(OC)OC)Nc2nccn2C1c1cccc([N+](=O)[O-])c1` (stereo not given): the melting point was 190 to 191 °C.

In the case of `Cc1c(Br)ccc([N+](=O)[O-])c1C#N`, the melting point was 116 to 118 °C. With `COC12CC(C)(C)C(O)C(C=C1C)O2` (stereo not given) the figure was 82.5 to 83.5 °C; with `Cn1cc(C(=O)Nc2ccccc2-c2ccc(Br)cc2)c(C(F)(F)F)c1`, 163 to 164 °C.

Consider `CCCn1c(=O)c2c(NC)n[nH]c2n(Cc2cccnc2)c1=O`, for which the melting point was > 300 °C.

On to `COc1nc(NC(=O)NS(=O)(=O)c2ccccc2OC(F)F)nc(NC(C)(C)C)n1`, for which the melting point was 213 to 214 °C.

For the compound `CC(C)(C)c1ccc2c(c1)OCC(NNc1ncnc3c1ncn3C1OC(CO)C(O)C1O)C2` (stereo not given), the melting point lay in the range of 88 to 90 °C.

In turn, `COc1cc(C(=O)O)cc(C(F)(F)F)c1` showed a melting point of 131 to 135 °C. With `COC(=O)NNC(=S)Cc1ccc(F)cc1` the figure was 150 to 152 °C; with `CC(C)(C)C(=O)c1c[nH]c2ncc(-c3ccc(S(N)(=O)=O)cc3)nc12`, 277 to 278 °C.

With `CC(C)(C)OC(=O)CS`, the melting point was determined as 72 °C. To `CC(C(=O)O)c1cccc(NC(=O)NCC(=O)N2[C@@H](c3ccccc3F)SC[C@H]2C(=O)OC(C)(C)C)c1` (stereo not given in full) belongs 126 °C.
